This is an account of results in patent publication US12295959B2 (priority 2021, dated 2025).

One test relates to 5HT2A sensor. It counts as cell-based.
The next test concerns mice. Kind of test: Head-twitch response (HTR). In kind it is in vivo. On the procedure: Head twitch response (HTR) experiments. C57BL/6J Mice (9-10 weeks old) are housed following an IACUC approved protocol. The mice are habituated in the test cage for at least 30 min, injected intraperitoneally with compound (injection volume 5 ml/kg), returned to the empty test cage, and filmed for 20 minutes. Each video is scored for the number of head-twitches by a trained observer blinded to treatment condition.

The test system of a further test is rat cortical neurons. In words: Neurite outgrowth assay. In kind it is cell-based. Details: key: A: Statistically significant mean increase as a percent of DMSO control at 10 μM or less.; B: No statistically significant mean increase as a percent of DMSO control at 10 μM or less. Conditions: 72 h, 10 μM or less, vs DMSO control. The text has this:
Neurite Outgrowth Assay. Changes in the pattern of neurite outgrowth have been implicated in psychiatric and neurodegenerative disorders as well as traumatic injuries. The discovery of new compounds that can positively affect neuritogenesis are important for developing new therapeutics for neurological diseases. Measurement of neurite outgrowth of rat cortical neurons using an automated image-based assay was used to determine the neuroplastic effects of the compounds of the present invention. The neurite outgrowth assay was performed at Neurofit SAS (France) as described below.
Pregnant Wistar rats (Janvier; France) were used for the study. They were delivered 6 days before their use. Upon arrival at Neurofit animal facility, they were housed one per cage and maintained in a room with controlled temperature (21-22° C.) and a reversed light-dark cycle (12 h/12 h; lights on: 17:30-05:30; lights off: 05:30-17:30) with food and water available ad libitum.
Female Wistar rats of 17 days gestation were killed by cervical dislocation and the fetuses were removed from the uterus. Their brains were placed in ice-cold medium of Leibovitz (L15, Gibco, Fisher bioblock, France). Cortices were dissected and meninges were carefully removed. The cortical neurons were dissociated by trypsinization for 30 min at 37° C. (trypsin-EDTA, Gibco) in presence of 0.1 mg/ml DNAse I (Roche, France). The reaction was stopped by addition of Dulbecco's Modified Eagle Medium (DMEM; Gibco) with 10% of fetal bovine serum (FBS; Gibco). The suspension was triturated with a 10-ml pipette and using a needle syringe 21G and centrifuged at 350×g for 10 min at room temperature. The pellet of dissociated cells was resuspended in a medium consisting of Neurobasal (Gibco) supplemented with 2% B27 supplement (Gibco), 0.5 mM L-Glutamine (Gibco), an antibiotic-antimicotic mixture. Viable cells were counted in a Neubauer cytometer using the trypan blue exclusion test (Sigma). Cells were seeded at a density of 10000 cells per well in 96-well plate (Costar) precoated with poly-L-lysine. Test compound at different concentrations were added to the cultures. Donepezil (positive control) was tested at 250 nM.
After 72 h (3 days) of plating, cultures were fixed with paraformaldehyde in PBS (4%, Sigma) for 30 min at 4° C. Then, cells were successively permeabilized with 0.1% Triton X100 for 30 min, saturated with PBS containing 3% of BSA and were incubated 1 h with anti-beta III tubulin antibody (Sigma) at 1/10 000 in PBS containing 0.5% of BSA. Cells were washed three times with PBS containing 0.5% of BSA, and they were incubated 1 h with goat anti-mouse antibody coupled with AF488 (Invitrogen A 11001) diluted at 1/1000 in PBS containing 0.5% of BSA. Finally, nuclei were staining with DAPI 1 mg/ml at 1/1000 in PBS containing 0.5% of BSA. After rinsing with PBS, the plate was filmed and neurite networks were examined and analyzed using High-Content Screening (CellInsight, Thermo Scientific). The average number of neurites per neuron and the average total length of neurites per neuron were the main parameters analyzed. Analysis of data was performed using analysis of variance (ANOVA). The Fisher's Protected Least Significant Difference test was used for multiple comparisons. A p value≤0.05 was considered significant. The software used is StatView 5.0 from SAS Institut.

Test [1] concerns the target T1, 5-HT2A (Homo sapiens, UniProt P28223). In words: Serotonin 5-HT2A in vitro cellular IPOne antagonism assay. It counts as cell-based. Details: host or cells: CHO-K1. Conditions: CHO-K1 cells, antagonist mode, reference agonist a-Me-5HT. The protocol: Serotonin 5-HT2A and 5-HT2C In Vitro Cellular IPOne Antagonism Assay. The 5-HT2A IPOne HTRF assay was performed at Epics Therapeutics S.A. (Belgium, FAST-0505I) in antagonism mode using conventional methods. Briefly, CHO-K1 cells expressing human recombinant 5-HT2A receptor grown to mid-log phase in culture media without antibiotics were detached with PBS-EDTA, centrifuged, and resuspended in medium without antibiotics buffer. 20,000 cells were distributed in a 96 well plate and incubated overnight at 37° C. with 5% CO2.
For antagonist testing, a reference agonist a-Me-5HT was added and fluorescence signal monitored for several minutes, followed by addition of 20 μl of assay buffer plus 20 μl of test compound or reference antagonist ketanserin, in each well. The plate was incubated for 60 min. at 37° C. with 5% CO2.
(§1) After addition of the lysis buffer containing IP1-d2 and anti-IP1 cryptate detection reagents, plates were incubated 1-hour at room temperature, and fluorescence ratios were measured according to the manufacturer specification, with the HTRF kit.

Test [2] deals with T1, 5-HT2A. Kind of test: Serotonin 5-HT2A in vitro radioligand binding competition assay ([3H]-DOI). Details: purchased Epics Therapeutics S.A. (Belgium) FAST-0505B; host or cells: membrane extracts. Conditions: [3H]-DOI competition, membrane extracts. On the procedure: Serotonin 5-HT2A In Vitro Radioligand Binding Competition Assay. The 5-HT2A radioligand binding competition assay was performed at Epics Therapeutics S.A. (Belgium, FAST-0505B) using conventional methods. Briefly, competition binding was performed in duplicate in the wells of a 96 well plate (Master Block, Greiner, 786201) containing binding buffer (optimized for each receptor), membrane extracts (amount of protein/well optimized for each receptor), radiotracer [^3H]-DOI (final concentration optimized for each receptor) and test compound. Nonspecific binding was determined by co-incubation with 200-fold excess of cold competitor. The samples were incubated in a final volume of 0.1 ml at a temperature and for a duration optimized for each receptor and then filtered over filter plates. Filters were washed six times with 0.5 ml of ice-cold washing buffer (optimized for each receptor) and 50 μl of Microscint 20 (Packard) was added in each well. The plates were incubated 15 min on an orbital shaker and then counted with a TopCount™ for 1 min/well.

The target of test [3] is T1, 5-HT2A. Kind of test: Serotonin 5-HT2A in vitro cellular IPOne agonism assay (HTRF). In kind it is cell-based. Details: host or cells: CHO-K1. Conditions: CHO-K1 cells, agonist mode. On the procedure:
Serotonin 5-HT2A In Vitro Cellular IPOne Agonism Assay. The 5-HT2A IPOne HTRF assay was performed at Epics Therapeutics S.A. (Belgium, FAST-0505I) using conventional methods. Briefly, CHO-K1 cells expressing human recombinant 5-HT2A receptor grown to mid-log phase in culture media without antibiotics were detached with PBS-EDTA, centrifuged, and resuspended in medium without antibiotics buffer. 20,000 cells were distributed in a 96 well plate and incubated overnight at 37° C. with 5% CO2.
For agonist testing, the medium was removed and 20 μl of assay buffer plus 20 μl of test compound or reference agonist are added in each well. The plate was incubated for 60 min. at 37° C. with 5% CO2.
as §1
For orientation: Time-resolved FRET reads energy transfer from a long-lived donor to a nearby acceptor.

T1 sequence (P28223 whole entry): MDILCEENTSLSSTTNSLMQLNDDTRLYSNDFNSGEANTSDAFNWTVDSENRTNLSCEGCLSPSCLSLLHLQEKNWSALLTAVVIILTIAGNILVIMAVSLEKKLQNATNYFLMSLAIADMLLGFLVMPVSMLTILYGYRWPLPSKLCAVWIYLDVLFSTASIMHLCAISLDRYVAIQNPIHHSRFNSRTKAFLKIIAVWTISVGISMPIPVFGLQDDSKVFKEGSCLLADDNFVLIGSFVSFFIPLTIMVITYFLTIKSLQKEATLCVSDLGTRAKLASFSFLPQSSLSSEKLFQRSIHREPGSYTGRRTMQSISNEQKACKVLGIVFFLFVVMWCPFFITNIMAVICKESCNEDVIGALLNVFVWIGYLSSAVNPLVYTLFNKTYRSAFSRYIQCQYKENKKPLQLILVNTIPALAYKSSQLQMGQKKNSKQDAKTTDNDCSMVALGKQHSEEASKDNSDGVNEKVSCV

As for `CCN(CC)C(=O)[C@@H]1C=C2c3cccc4[nH]c(Br)c(c34)C[C@H]2N(C)C1` [BOL148], the “activation of the 5HT2A sensor assay in agonist mode” value (“activation of the 5HT2A sensor assay” for short) in the test on 5HT2A sensor is “do not activate”.

On to `COc1ccc2[nH]cc(CCN(C)C)c2c1` [Compound 5-MeO-DMT, 5-MeO-DMT], for which the “activation of the 5HT2A sensor assay” value in the test on 5HT2A sensor was “activate”. In addition, the “head-twitch response (HTR)” value with mice is on record as “robust, dose-dependent head-twitch response”.

With `CCN(CC)CCc1c[nH]c2cc(F)ccc12` [Compound 6-F-DET, 6-F-DET], the “activation of the 5HT2A sensor assay” value in the test with 5HT2A sensor was “do not activate”.

As to `COc1ccc2c(CCN(C)C)c[nH]c2c1` [Compound 6-MeO-DMT, 6-MeO-DMT], the “activation of the 5HT2A sensor assay” value with 5HT2A sensor was “do not activate”. Also, the “head-twitch response (HTR)” value in the test on mice is listed as “does not produce a HTR”.

One may read the IC50 as the point on the concentration scale where inhibition reaches its midpoint. The term EC50 denotes the midpoint of the concentration-response curve. Turning to `CN1CCc2[nH]c3c(Br)ccc(OCc4ccccc4)c3c2CC1` [Compound 29, 10-(benzyloxy)-7-bromo-3-methyl-1,2,3,4,5,6-hexahydroazepino[4,5-b]indole], in the test with rat cortical neurons, the “Increase in Neurite Branching” value was “B”, the “Increase in Neurite Length” value is listed as “A” and the “Increase in Neurite Number” value is listed as “B”. The molecule also registered a concentration for half-maximal inhibition (IC50) on 5-HT2A [1] of 10 to 100 nM. At 5-HT2A [2], this molecule returned an IC50 of 10 to 100 nM. This molecule gave a 50% effective concentration (EC50) on 5-HT2A [3] of 10 to 100 nM.

Consider `CN(C)CCc1c[nH]c2ccccc12` [DMT, N,N-dimethyltryptamine], for which the “activation of the 5HT2A sensor assay” value in the test on 5HT2A sensor is “activate”.

Regarding `COc1cc(CC(C)N)c(OC)cc1I` (centres unmarked) [DOI], in the test on 5HT2A sensor, the “activation of the 5HT2A sensor assay” value was “activate”.

Take `O=C(c1ccc(F)cc1)C1CCN(CCn2c(=O)[nH]c3ccccc3c2=O)CC1` [Ketanserin]: the “activation of the 5HT2A sensor assay” value in the test with 5HT2A sensor is listed as “do not activate”.

In the case of `CNC(C)Cc1ccc2c(c1)OCO2` [L-MDMA], the “activation of the 5HT2A sensor assay” value in the test with 5HT2A sensor is “do not activate”.

Consider `CCN(CC)C(=O)[C@@H]1C=C2c3cccc4[nH]cc(c34)C[C@H]2N(C)C1` [LSD], for which, in the test with 5HT2A sensor, the “activation of the 5HT2A sensor assay” value was “activate”.
